Legend:
Format in all cases: in vivo
[1] = tested on: Abutilon theophrasti (ABUTH); test: pre-emergence herbicidal test; details: second assessment 21 days after treatment
Description: (§1) To evaluate their herbicidal activity, compounds according to the invention are tested using a representative range of plants: […] The pre-emergence tests involve spraying a liquid formulation of the compound onto the soil in which the seeds of the plant species mentioned above has recently been sown. The soil used in the tests is a prepared horticultural loam. […] In these tests untreated sown soil are used as controls.

[2] = tested on: Alopecurus myosuroides (ALOMY); test: pre-emergence herbicidal test; details: second assessment 21 days after treatment
Description: as §1

Glycine max (GLXMA) = test: pre-emergence herbicidal test
Description: as §1

[3] = tested on: Ipomoea hederacea (IPOHE); test: pre-emergence herbicidal test; details: second assessment 21 days after treatment
Description: as §1

[4] = tested on: Matricaria inodora (MATIN); test: pre-emergence herbicidal test; details: second assessment 21 days after treatment
Description: as §1

Setaria viridis (SETVI) = test: pre-emergence herbicidal test; details: second assessment 21 days after treatment
Description: as §1

[5] = tested on: Triticum aestivum (TRZAW); test: pre-emergence herbicidal test
Description: as §1

Zea mays (ZEAMX) = test: pre-emergence herbicidal test
Description: as §1

Galium aparine (GALAP) = test: pre-emergence herbicidal test; details: second assessment 21 days after treatment
Description: (§2) To evaluate their herbicidal activity, compounds according to the invention are tested using a representative range of plants:
(§3) The pre-emergence tests involve spraying a liquid formulation of the compound onto the soil in which the seeds of the plant species mentioned above has recently been sown.
(§4) The soil used in the tests is a prepared horticultural loam. The formulations used in the tests are prepared from solutions of the test compounds in acetone containing 0.4% by weight of an alkylphenol/ethylene oxide condensate available under the trade mark TRITON X-155. These acetone solutions are diluted with water and the resulting formulations applied at dosage levels corresponding to 12.5 g, 25 g, 100 g or 400 g of active material per hectare in a volume equivalent to 900 liters per hectare. In these tests untreated sown soil are used as controls.
(§5) From 2 to 4 weeks after treatment, the tests are terminated and each pot is examined and rated according to the rating system set forth below: […]

Hordeum vulgare (HORVW) = test: pre-emergence herbicidal test
Description: as §2, §3, §4, §5

Oryza sativa (ORYSA) = test: pre-emergence herbicidal test
Description: as §2, §3, §4, §5

Stellaria media (STEME) = test: pre-emergence herbicidal test; details: second assessment 21 days after treatment
Description: as §2, §3, §4, §5

Veronica persica (VERPE) = test: pre-emergence herbicidal test; details: second assessment 21 days after treatment
Description: as §2, §3, §4, §5

weeds = test: pre-emergence test, overall weed control; details: dose of 25 g/ha
Description: as §2, §3, §4
(§6) From 2 to 4 weeks after treatment, the tests are terminated and each pot is examined and rated according to the rating system set forth below:
(§7) The compounds of the invention have shown to clearly improve selectivity in important crops (maize, soybeans, wheat, barley) when compared to the corresponding compounds of the state of the art having a central 4-methylpyrid-2,6-diyl moiety instead of the 3,5-difluoro-4-methylpyrid-2,6-diyl group according to the invention.

rice, maize and wheat = test: pre-emergence test, crop tolerance and selectivity; details: dose of 25 g/ha
Description: as §2, §3, §4, §6, §7

[6] = tested on: Ambrosia artemisiifolia (AMBEL); test: pre-emergence herbicidal test; details: second assessment 21 days after treatment
Description: as §1

[7] = 0.0125 kg/ha, first assessment 10 days after treatment
[8] = 0.0125 kg/ha, second assessment 21 days after treatment
[9] = 0.025 kg/ha, first assessment 10 days after treatment
[10] = 0.025 kg/ha, second assessment 21 days after treatment
[11] = 0.100 kg/ha, first assessment 10 days after treatment
[12] = 0.100 kg/ha, second assessment 21 days after treatment
[13] = 0.400 kg/ha, first assessment 10 days after treatment
[14] = 0.400 kg/ha, second assessment 21 days after treatment

## Cc1c(F)c(Oc2cc(C(F)(F)F)nn2C)nc(-c2ccc(C(F)(F)F)cc2)c1F [Example 1, 3,5-Difluoro4-methyl-2-(1-methyl-3-trifluoromethylpyrazol-5-yloxy)-6-(4-trifluoromethylphenyl)pyridine]
[1]; 0.0125 kg/ha
  ABUTH rating: 6 (6 - Herbicidal effect)
[1]; 0.025 kg/ha
  ABUTH rating: 9 (9 - Complete kill)
[1]; 0.100 kg/ha
  ABUTH rating: 9 (9 - Complete kill)
[1]; 0.400 kg/ha
  ABUTH rating: 9 (9 - Complete kill)
[2]; 0.0125 kg/ha
  ALOMY rating: 7 (7 - Good herbicidal effect)
[2]; 0.025 kg/ha
  ALOMY rating: 8 (8 - Approaching complete kill)
[2]; 0.100 kg/ha
  ALOMY rating: 9 (9 - Complete kill)
[2]; 0.400 kg/ha
  ALOMY rating: 9 (9 - Complete kill)
Glycine max (GLXMA); [7]
  GLXMA rating: 2 (2 - Slight effect)
Glycine max (GLXMA); [8]
  GLXMA rating: 4 (4 - Injury)
Glycine max (GLXMA); [9]
  GLXMA rating: 2 (2 - Slight effect)
Glycine max (GLXMA); [10]
  GLXMA rating: 4 (4 - Injury)
Glycine max (GLXMA); [11]
  GLXMA rating: 3 (3 - Moderate effect)
Glycine max (GLXMA); [12]
  GLXMA rating: 5 (5 - Definite injury)
Glycine max (GLXMA); [13]
  GLXMA rating: 4 (4 - Injury)
Glycine max (GLXMA); [14]
  GLXMA rating: 5 (5 - Definite injury)
[3]; 0.025 kg/ha
  IPOHE rating: 3 (3 - Moderate effect)
[3]; 0.100 kg/ha
  IPOHE rating: 9 (9 - Complete kill)
[3]; 0.400 kg/ha
  IPOHE rating: 9 (9 - Complete kill)
[4]; 0.0125 kg/ha
  MATIN rating: 8 (8 - Approaching complete kill)
[4]; 0.025 kg/ha
  MATIN rating: 8 (8 - Approaching complete kill)
[4]; 0.100 kg/ha
  MATIN rating: 9 (9 - Complete kill)
[4]; 0.400 kg/ha
  MATIN rating: 9 (9 - Complete kill)
Setaria viridis (SETVI); 0.0125 kg/ha
  SETVI rating: 7 (7 - Good herbicidal effect)
Setaria viridis (SETVI); 0.025 kg/ha
  SETVI rating: 7 (7 - Good herbicidal effect)
Setaria viridis (SETVI); 0.100 kg/ha
  SETVI rating: 9 (9 - Complete kill)
Setaria viridis (SETVI); 0.400 kg/ha
  SETVI rating: 9 (9 - Complete kill)
[5]; [7]
  TRZAW rating: 3 (3 - Moderate effect)
[5]; [8]
  TRZAW rating: 3 (3 - Moderate effect)
[5]; [9]
  TRZAW rating: 3 (3 - Moderate effect)
[5]; [10]
  TRZAW rating: 3 (3 - Moderate effect)
[5]; [11]
  TRZAW rating: 5 (5 - Definite injury)
[5]; [12]
  TRZAW rating: 5 (5 - Definite injury)
[5]; [13]
  TRZAW rating: 6 (6 - Herbicidal effect)
[5]; [14]
  TRZAW rating: 6 (6 - Herbicidal effect)
Zea mays (ZEAMX); [7]
  ZEAMX rating: 1 (1 - Trace effect)
Zea mays (ZEAMX); [8]
  ZEAMX rating: 1 (1 - Trace effect)
Zea mays (ZEAMX); [9]
  ZEAMX rating: 2 (2 - Slight effect)
Zea mays (ZEAMX); [10]
  ZEAMX rating: 2 (2 - Slight effect)
Zea mays (ZEAMX); [11]
  ZEAMX rating: 3 (3 - Moderate effect)
Zea mays (ZEAMX); [12]
  ZEAMX rating: 3 (3 - Moderate effect)
Galium aparine (GALAP); 0.0125 kg/ha
  GALAP rating: 3 (3 - Moderate effect)
Galium aparine (GALAP); 0.025 kg/ha
  GALAP rating: 5 (5 - Definite injury)
Galium aparine (GALAP); 0.100 kg/ha
  GALAP rating: 7 (7 - Good herbicidal effect)
Galium aparine (GALAP); 0.400 kg/ha
  GALAP rating: 8 (8 - Approaching complete kill)
Hordeum vulgare (HORVW); [7]
  HORVW rating: 4 (4 - Injury)
Hordeum vulgare (HORVW); [8]
  HORVW rating: 4 (4 - Injury)
Hordeum vulgare (HORVW); [9]
  HORVW rating: 5 (5 - Definite injury)
Hordeum vulgare (HORVW); [10]
  HORVW rating: 4 (4 - Injury)
Hordeum vulgare (HORVW); [11]
  HORVW rating: 5 (5 - Definite injury)
Hordeum vulgare (HORVW); [12]
  HORVW rating: 5 (5 - Definite injury)
Hordeum vulgare (HORVW); [13]
  HORVW rating: 6 (6 - Herbicidal effect)
Hordeum vulgare (HORVW); [14]
  HORVW rating: 7 (7 - Good herbicidal effect)
Oryza sativa (ORYSA); [7]
  ORYSA rating: 1 (1 - Trace effect)
Oryza sativa (ORYSA); [8]
  ORYSA rating: 2 (2 - Slight effect)
Oryza sativa (ORYSA); [9]
  ORYSA rating: 1 (1 - Trace effect)
Oryza sativa (ORYSA); [10]
  ORYSA rating: 2 (2 - Slight effect)
Oryza sativa (ORYSA); [11]
  ORYSA rating: 3 (3 - Moderate effect)
Oryza sativa (ORYSA); [12]
  ORYSA rating: 4 (4 - Injury)
Oryza sativa (ORYSA); [13]
  ORYSA rating: 4 (4 - Injury)
Oryza sativa (ORYSA); [14]
  ORYSA rating: 5 (5 - Definite injury)
Stellaria media (STEME); 0.0125 kg/ha
  STEME rating: 9 (9 - Complete kill)
Stellaria media (STEME); 0.025 kg/ha
  STEME rating: 9 (9 - Complete kill)
Stellaria media (STEME); 0.100 kg/ha
  STEME rating: 9 (9 - Complete kill)
Stellaria media (STEME); 0.400 kg/ha
  STEME rating: 9 (9 - Complete kill)
Veronica persica (VERPE); 0.0125 kg/ha
  VERPE rating: 8 (8 - Approaching complete kill)
Veronica persica (VERPE); 0.025 kg/ha
  VERPE rating: 9 (9 - Complete kill)
Veronica persica (VERPE); 0.100 kg/ha
  VERPE rating: 9 (9 - Complete kill)
Veronica persica (VERPE); 0.400 kg/ha
  VERPE rating: 9 (9 - Complete kill)
weeds
  overall levels of weed control: good overall levels of weed control
rice, maize and wheat
  crop tolerance: well tolerated

## Cc1c(F)c(Oc2cccc(C(F)(F)F)c2)nc(-c2ccc(C(F)(F)F)cc2)c1F [Example 2]
[1]; 0.0125 kg/ha
  ABUTH rating: 0 (0 - No effect)
[1]; 0.025 kg/ha
  ABUTH rating: 1 (1 - Trace effect)
[1]; 0.100 kg/ha
  ABUTH rating: 3 (3 - Moderate effect)
[1]; 0.400 kg/ha
  ABUTH rating: 8 (8 - Approaching complete kill)
[2]; 0.0125 kg/ha
  ALOMY rating: 2 (2 - Slight effect)
[2]; 0.025 kg/ha
  ALOMY rating: 3 (3 - Moderate effect)
[2]; 0.400 kg/ha
  ALOMY rating: 9 (9 - Complete kill)
[6]; 0.0125 kg/ha
  AMBEL rating: 4 (4 - Injury)
[6]; 0.025 kg/ha
  AMBEL rating: 5 (5 - Definite injury)
[6]; 0.100 kg/ha
  AMBEL rating: 5 (5 - Definite injury)
[6]; 0.400 kg/ha
  AMBEL rating: 9 (9 - Complete kill)
Glycine max (GLXMA); [7]
  GLXMA rating: 0 (0 - No effect)
Glycine max (GLXMA); [8]
  GLXMA rating: 2 (2 - Slight effect)
Glycine max (GLXMA); [9]
  GLXMA rating: 1 (1 - Trace effect)
Glycine max (GLXMA); [10]
  GLXMA rating: 2 (2 - Slight effect)
Glycine max (GLXMA); [11]
  GLXMA rating: 3 (3 - Moderate effect)
Glycine max (GLXMA); [12]
  GLXMA rating: 4 (4 - Injury)
Glycine max (GLXMA); [13]
  GLXMA rating: 6 (6 - Herbicidal effect)
Glycine max (GLXMA); [14]
  GLXMA rating: 7 (7 - Good herbicidal effect)
[3]; 0.0125 kg/ha
  IPOHE rating: 1 (1 - Trace effect)
[3]; 0.025 kg/ha
  IPOHE rating: 2 (2 - Slight effect)
[3]; 0.100 kg/ha
  IPOHE rating: 3 (3 - Moderate effect)
[3]; 0.400 kg/ha
  IPOHE rating: 7 (7 - Good herbicidal effect)
[4]; 0.0125 kg/ha
  MATIN rating: 7 (7 - Good herbicidal effect)
[4]; 0.025 kg/ha
  MATIN rating: 8 (8 - Approaching complete kill)
[4]; 0.100 kg/ha
  MATIN rating: 8 (8 - Approaching complete kill)
[4]; 0.400 kg/ha
  MATIN rating: 9 (9 - Complete kill)
Setaria viridis (SETVI); 0.0125 kg/ha
  SETVI rating: 5 (5 - Definite injury)
Setaria viridis (SETVI); 0.025 kg/ha
  SETVI rating: 8 (8 - Approaching complete kill)
Setaria viridis (SETVI); 0.100 kg/ha
  SETVI rating: 9 (9 - Complete kill)
Setaria viridis (SETVI); 0.400 kg/ha
  SETVI rating: 9 (9 - Complete kill)
[5]; [7]
  TRZAW rating: 1 (1 - Trace effect)
[5]; [8]
  TRZAW rating: 0 (0 - No effect)
[5]; [9]
  TRZAW rating: 1 (1 - Trace effect)
[5]; [10]
  TRZAW rating: 0 (0 - No effect)
[5]; [11]
  TRZAW rating: 1 (1 - Trace effect)
[5]; [12]
  TRZAW rating: 1 (1 - Trace effect)
[5]; [13]
  TRZAW rating: 4 (4 - Injury)
[5]; [14]
  TRZAW rating: 5 (5 - Definite injury)
Zea mays (ZEAMX); [7]
  ZEAMX rating: 0 (0 - No effect)
Zea mays (ZEAMX); [8]
  ZEAMX rating: 0 (0 - No effect)
Zea mays (ZEAMX); [9]
  ZEAMX rating: 1 (1 - Trace effect)
Zea mays (ZEAMX); [10]
  ZEAMX rating: 1 (1 - Trace effect)
Zea mays (ZEAMX); [11]
  ZEAMX rating: 2 (2 - Slight effect)
Zea mays (ZEAMX); [12]
  ZEAMX rating: 2 (2 - Slight effect)
Zea mays (ZEAMX); [13]
  ZEAMX rating: 3 (3 - Moderate effect)
Zea mays (ZEAMX); [14]
  ZEAMX rating: 3 (3 - Moderate effect)

— patent US6673745B2, “Herbicidal 3,5-difluoropyridines” (BASF Aktiengesellschaft, priority 1997, dated 2004)
